Results on one compound are retold here after patent publication US20130122051A1, “Methods of preparing progesterone pharmaceutical compositions” (PHARMACEUTICS INTERNATIONAL, INC., priority 2011, published 2013).

The series is described as follows: particle size measured using a MALVERN MASTERSIZER particle size analyzer. To be noted: starting progesterone particles before milling. The series is classed as physicochemical. The method, then: Samples of each of the first, second, and third pass wet-milled progesterone compositions prepared under the various milling conditions are collected and the particle size (μm) is measured using a MALVERN MASTERSIZER particle size analyzer (Malvern Instruments, Westborough Mass.). Saturated, filtered, progesterone in sunflower oil is used as the diluent. “Initial” refers to unmilled progesterone suspension. “% Beads” refers to the volume of milling chamber filled with milling media (beads). “Input” refers to the pump setting. “Output” refers to the product (gm/min) received from the mill.

The structures appear in SMILES notation.

As to `CC(=O)[C@H]1CC[C@H]2[C@@H]3CCC4=CC(=O)CC[C@]4(C)[C@H]3CC[C@]12C` [unmicronized progesterone, pregn-4-ene-3,20-dione], the D90 was determined as 220 μm.
